Results from paper PMC12021085 (2025).

Tests used:
[1] = test system: NOP56-G4 (DNA, G4) GGGCCTGGGCCTGGGCCTGGG; test: ITC; conditions: Na+ (1 mM sodium phosphate); pH 7.0, room temperature; 200 µM PDS titrated into 10 µM DNA
[2] = test system: NOP56-G4 (DNA, G4) GGGCCTGGGCCTGGGCCTGGG; test: CD spectroscopy; conditions: K+ (100 mM KCl), Na+ (1 mM sodium phosphate); pH 7, 25 °C; 20 µM DNA, 20 µM PDS; antiparallel G4 features
[3] = test system: NOP56-G4 (DNA, G4) GGGCCTGGGCCTGGGCCTGGG; test: CD melting at 295 nm; conditions: Na+ (1 mM sodium phosphate); pH 7; 3 equivalents PDS; Tm 44.8 to 58.8 °C
[4] = test system: NOP56-G4 (DNA, G4) GGGCCTGGGCCTGGGCCTGGG; test: solution NMR structure; conditions: Na+ (1 mM sodium phosphate); pH 7, 25 °C; 0.5 mM DNA, 1.5 mM PDS; stacks on terminal G-tetrad
[5] = test system: NOP56-G4 template (with annealed Cy5 primer) (DNA, G4) GGGCCTGGGCCTGGGCCTGGGTTTTTTTATAGTGAGTCGTATTA/TAATACGACTCACTATA; test: DNA polymerase stop assay (Klenow fragment); conditions: K+ (100 mM KCl), Na+ (50 mM NaCl), Mg2+ (10 mM MgCl2); 10 mM Tris-HCl pH 7.9, 1 mM DTT, 37 °C; PDS concentration-dependent stalling

`NCCOc1cc(C(=O)Nc2cc(OCCN)c3ccccc3n2)nc(C(=O)Nc2cc(OCCN)c3ccccc3n2)c1` was tested, and the KD [1] was 0.64 ± 0.02 µM, the binding [2] was “yes” and the Tm increase [3] was ~ 14 °C. For the same molecule, the binding [4] was “yes” and the binding [5] was “yes”.
